Read-outs that look alike come from different tables or passages of the source.
Tests used:
[1] = tested on: pERK (Thr202/Tyr204) in NCI-H358 (KRAS G12C mutation); experiment: ERK phosphorylation assay 1 (AlphaLISA SureFire Ultra p-ERK1/2)
Experimental: ERK Phosphorylation Assay
Materials Used for the Assay:
AlphaLISA SureFire Ultra p-ERK1/2 (Thr202/Tyr204) Assay Kit (ALSU-PERK-A500)
The cells are incubated for 1 h at room temperature and then incubated overnight in an incubator at 37° C. and 5% CO2 in a humidified atmosphere. 60 nL compound solution (10 mM DMSO stock solution) is then added using a Labcyte Echo 550 device. […] After 20 minutes of incubation at room temperature with shaking, 6 μL of each lysate sample is transferred to a 384-well Proxiplate and analyzed for pERK (Thr202/Tyr204) with the AlphaLISA SureFire Ultra pERK1/2 (Thr202/Tyr204) Assay Kit. 3 μL Acceptor Mix and 3 μL Donor Mix are added under subdued light and incubated for 2 h at room temperature in the dark, before the signal is measured on a PerkinElmer Envision HTS Multilabel Reader. The raw data were imported into and analyzed with the Boehringer Ingelheim proprietary software MegaLab (curve fitting based on the program PRISM, GraphPad Inc.).

[2] = biological target: T1, protein-protein interaction between SOS1 and KRAS G12C (Homo sapiens, UniProt P01116, C118S/C51S/C80L/G12C); experiment: KRAS::SOS1 AlphaScreen binding assay
T1 construct: His6 (N)
Experimental: KRAS::SOS1 AlphaScreen Binding Assay
Assay buffer: • 1×PBS • 0.1% BSA • 0.05% Tween 20
AlphaLISA Glutathione Acceptor Beads and AlphaScreen Streptavidin Donor Beads are mixed in assay buffer at a concentration of 10 μg/mL (final assay concentration) each prior to use and kept at room temperature.
Compounds are diluted to a final start concentration of 100 μM and are tested in duplicate. […] For compound a start concentration of 100 μM, 150 nL of compound solution is transferred per well in 11 concentrations in duplicate with serial 1:5 dilutions.
The assay is run using a fully automated robotic system in a darkened room below 100 Lux. 10 μL of KRAS::SOS1 GDP mix is added into columns 1-24 to the 150 nL of compound solution (final dilution in the assay 1:100, final DMSO concentration 1%).
After 30 minutes incubation time 5 μL of bead mix is added into columns 1-23. Plates are kept at room temperature in a darkened incubator. After further 60 minutes incubation, the signal is measured using a PerkinElmer Envision HTS Multilabel Reader using the AlphaScreen specifications from PerkinElmer. Each plate contains the following controls: • diluted DMSO+KRAS::SOS1 GDP mix+bead mix • diluted DMSO+KRAS::SOS1 GDP mix
IC50 values are calculated and analyzed using a 4 parametric logistic model.

[3] = Homo sapiens, NCI-H358, read-out: IC50 H358 pERK

T1 sequence (P01116 1-169 isoform P01116-2 G12C/C51S/C80L/C118S): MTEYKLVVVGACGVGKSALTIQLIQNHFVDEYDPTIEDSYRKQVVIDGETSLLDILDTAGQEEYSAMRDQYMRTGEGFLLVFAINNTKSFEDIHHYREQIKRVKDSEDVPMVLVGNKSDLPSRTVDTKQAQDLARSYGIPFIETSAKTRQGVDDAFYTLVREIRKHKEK

Structure (SMILES)	IC50 [1, 3] [nM]	IC50 ([2]; Table 36) [nM]	IC50 ([2]; Table 35) [nM]	IC50 ([1]; read-out: IC50 H358 pERK, ERK phosphorylation assay 1 (values not marked with *), NCI-H358) [nM]	IC50 ([2]; Table 40) [nM]
C=CC(=O)N1C[C@@H]2CN(c3cc(-c4noc(C5(C)CCCc6sc(N)c(C#N)c65)n4)nc(N4CCN(C5CCCC5)CC4)c3)[C@@H]2C1 (stereo partly shown) [Ia-9]	54.6	216			
C=CC(=O)N1CCN(c2cc(-c3noc(C4(C)CCCc5sc(N)c(C#N)c54)n3)nc(N3CCN(C(C)C)CC3)c2)CC1 (stereo not shown) [Ia-110]	8.7	76			
C=CC(=O)N1CC[C@@H](Oc2cc(-c3noc([C@@]4(C)CCCc5sc(N)c(C#N)c54)n3)nc(N3CCN(C)CC3)c2)C1 [Ia-112]	18.5	73			
C=CC(=O)N1CCN(c2cc(-c3noc(C4(C)CCCc5sc(N)c(C#N)c54)n3)nc(N3CCN(CCF)CC3)c2)CC1 (stereo not shown) [Ia-125]	233	232			
C=CC(=O)N1CCN(c2cc(-c3noc(C4(C)CCCc5sc(N)c(C#N)c54)n3)nc(N3CCN(CC)C(C)C3)c2)CC1 (stereo not shown) [Ia-152]	5.9	43			
C=CC(=O)N1CCC(c2cc(-c3noc(C4(C)CCCc5sc(N)c(C#N)c54)n3)nc(N3CCN(C)CC3)c2)CC1 (stereo not shown) [Ia-1]	31.4		123		
C=CC(=O)N1CC[C@H](Oc2cc(-c3noc(C4(C)CCCc5sc(N)c(C#N)c54)n3)nc(N3CCN(C)CC3)c2)C1 (stereo partly shown) [Ia-117]	120	468			
C=CC(=O)N1CCN(c2cc(-c3noc(C4CCCc5sc(N)c(C#N)c54)n3)nc(N3CCN(C)CC3)c2)CC1 (stereo not shown) [Ia-27]	61.6	240			
C=CC(=O)N1CCN(c2cc(-c3noc(C4(C)CCC(C)c5sc(N)c(C#N)c54)n3)nc(N3CCN(CC4CC4)CC3)c2)CC1 (stereo not shown) [Ia-106]	25.2	180			
C=CC(=O)N1CCN(c2cc(OC3CCN(C)CC3)nc(-c3noc(C4(C)CCCc5sc(N)c(C#N)c54)n3)c2)CC1 (stereo not shown) [Ia-118]	7.5	21			
C=CC(=O)N1CCC(Oc2cc(-c3noc(C4(C)CCCc5sc(N)c(C#N)c54)n3)nc(N3CCC(N4CCOCC4)CC3)c2)CC1 (stereo not shown) [Ia-30]	20.1	103			
C=CC(=O)N1CCN(c2cc(-c3noc(C4(C)CCCc5sc(N)c(C#N)c54)n3)nc(N3CCN(C)CC3)c2)CC1C (stereo not shown) [Ia-108]	19.8	182			
C=CC(=O)N1CCCC(Oc2cc(-c3noc(C4(C)CCCc5sc(N)c(C#N)c54)n3)nc(N3CCN(C)CC3)c2)CC1 (stereo not shown) [Ia-145]	93.5	377			
C=CC(=O)N1CCN(c2cc(-c3noc(C4(C)CCCc5sc(N)c(C#N)c54)n3)nc(N3CCN(CC)CC3)c2)CC1C (stereo not shown) [Ia-107]	29.3	198			
C=CC(=O)N1CCN(c2cc(-c3noc([C@@]4(C)CCCc5sc(N)c(C#N)c54)n3)nc(N3CCCN(CCCOC)C[C@@H]3C)n2)CC1 [Ia-42]	2.8	1.8			
C=CC(=O)N1CCN(c2cc(-c3noc(C4(C)CCC(C)c5sc(N)c(C#N)c54)n3)nc(N3CCN(C)CC3)c2)CC1 (stereo not shown) [Ia-12]	13.5	117			
C=CC(=O)N(C)c1cccc(-c2cc(-c3noc(C4(C)CCCc5sc(N)c(C#N)c54)n3)nc(N3CCN(C)CC3)c2)c1 (stereo not shown) [Ia-151]	182	1190			
C=CC(=O)N1CCN(c2cc(-c3noc(C4(C)CCC(C)c5sc(N)c(C#N)c54)n3)nc(N3CCN(CC)CC3)c2)CC1 (stereo not shown) [Ia-105]	14.4	145			
C=CC(=O)N1CCN(c2cc(-c3noc(C4(C)CCCc5sc(N)c(C#N)c54)n3)nc(N3C4CCC3CN(C)C4)c2)CC1 (stereo not shown) [Ia-16]	24.6	106			

More lines, now with the values ahead:

IC50 [1, 3] [nM]	IC50 ([2]; Table 36) [nM]	IC50 ([2]; Table 35) [nM]	IC50 ([1]; read-out: IC50 H358 pERK, ERK phosphorylation assay 1 (values not marked with *), NCI-H358) [nM]	IC50 ([2]; Table 40) [nM]	Structure (SMILES)
29.4	260				C=CC(=O)N1CCN(c2cc(-c3noc(C4(C)CCCc5sc(N)c(C#N)c54)n3)nc(N3CCN(C4CC4)CC3)c2)CC1 (stereo not shown) [Ia-17]
7.8	48				C=CC(=O)N1CCN(c2cc(-c3noc(C4(C)CCCc5sc(N)c(C#N)c54)n3)nc(N3CCC(N4CCOCC4)CC3)c2)CC1 (stereo not shown) [Ia-29]
785	152				C=CC(=O)N1CCN(c2cc(-c3noc(C4(C)CCCc5sc(N)c(C#N)c54)n3)nc(N3CCN(C4CCN(C)CC4)CC3)c2)CC1 (stereo not shown) [Ia-28]
6.7	40				C=CC(=O)N1CCN(c2cc(-c3noc(C4(C)CCCc5sc(N)c(C#N)c54)n3)nc(N3CCC(N4CCCCC4)C3)c2)CC1 (stereo not shown) [Ia-22]
6.5	47				C=CC(=O)N1CCN(c2cc(-c3noc(C4(C)CCCc5sc(N)c(C#N)c54)n3)nc(N3CCC(N4CCCC4)C3)c2)CC1 (stereo not shown) [Ia-23]
57.4	364				C=CC(=O)N1CCN(c2cc(-c3noc(C4(C)CCCc5sc(N)c(C#N)c54)n3)nc(N3CCN(C4COC4)CC3)c2)CC1 (stereo not shown) [Ia-18]
	50		9.9		C=CC(=O)N1CCN(c2cc(-c3noc(C4(C)CCCc5sc(N)c(C#N)c54)n3)nc(N3CCN(CC4CC4)CC3)c2)CC1 (stereo not shown) [Ia-146]
9.9	50				C=CC(=O)N1CCN(c2cc(-c3noc(C4(C)CCCc5sc(N)c(C#N)c54)n3)nc(N3CCN(CC4CC4)CC3)c2)CC1 (stereo not shown) [Ia-121]
76.6	158				C=CC(=O)N1CCCN(c2cc(-c3noc(C4(C)CCCc5sc(N)c(C#N)c54)n3)nc(N3CCN(C)CC3)c2)CC1 (stereo not shown) [Ia-124]
9.5	39				C=CC(=O)N1CCN(c2cc(-c3noc(C4(C)CCCc5sc(N)c(C#N)c54)n3)nc(N3CCN(CC)CC3)c2)CC1 (stereo not shown) [Ia-123]
5.9	24				C=CC(=O)N1CCN(c2cc(-c3noc(C4(C)CCCc5sc(N)c(C#N)c54)n3)nc(N3CCN4CCC[C@H]4C3)c2)CC1 (stereo partly shown) [Ia-148]
12.3	47				C=CC(=O)N1CCN(c2cc(-c3noc(C4(C)CCCc5sc(N)c(C#N)c54)n3)nc(N3CCC(N4CCCCC4)CC3)c2)CC1 (stereo not shown) [Ia-37]
5.8	22				C=CC(=O)N1CCN(c2cc(-c3noc(C4(C)CCCc5sc(N)c(C#N)c54)n3)nc(N3CCC(N4CCC(F)C4)CC3)c2)CC1 (stereo not shown) [Ia-38]
12.2	24				C=CC(=O)N1CCN(c2cc(-c3noc(C4(C)CCCc5sc(N)c(C#N)c54)n3)nc(N3CCC(N4CCCC4)CC3)c2)CC1 (stereo not shown) [Ia-36]
80.1	406				C=CC(=O)N1CCN(c2cc(-c3noc(C4(C)CCCc5sc(N)c(C#N)c54)n3)nc(N3CCN(C4CCC(F)(F)CC4)CC3)c2)CC1 (stereo not shown) [Ia-24]
269				87	C=CC(=O)N1CCN(c2cc(-c3noc(C4(C)CCCc5sc(N)c(C#N)c54)n3)nc(N3CCNCC3)c2)CC1 (stereo not shown) [Ia-170]

Source: patent US20230212164A1, “ANNULATED 2-AMINO-3-CYANO THIOPHENES AND DERIVATIVES FOR THE TREATMENT OF CANCER” (BOEHRINGER INGELHEIM INTERNATIONAL GMBH, priority 2020, published 2023)
